Legend:
[1] = system: PANC-1 pancreatic carcinomas; test: PANC-1 pancreatic carcinoma xenograft model; assay type: in vivo, nude mice; conditions: PANC-1 xenograft, po x 21 days
Protocol: The PANC-1 pancreatic carcinomas used for implantation were maintained by serial engraftment in nude mice. […] Tumor size, in mm3, was calculated from: Tumor Volume=(w2×l)/2 where w=width and l=length, in mm, of the tumor. […] Group 1 mice received the Compound A1 and Compound B1 vehicles, and served as controls for all analyses. […] Each animal was euthanized when tumor volume reached 1200 mm3, or on the last day of the study ([…]). For each animal whose tumor reached the endpoint volume, the time to endpoint (TTE) was calculated by the following equation: TTE=(log10(endpoint volume)-b)/m Where TTE is expressed in days, endpoint volume is in mm3, b is the intercept, and m is the slope of the line obtained by linear regression of a log-transformed tumor growth data set. […] The calculated TTE is usually less than the day on which an animal is euthanized for tumor size. […] Treatment efficacy was determined from tumor growth delay (TGD), which is defined as the increase in the median TTE for a treatment group compared with the control group: TGD=T-C, expressed in days, or as a percentage of the median TTE of the control group: % TGD=[(T-C)/C]×100, where: T=median TTE for a treatment group, C=median TTE for the designated control group.

[2] = system: Jeko-1 mantle cell lymphoma cells; test: Cell Titer-Glo cell viability assay, single agents and combinations; assay type: cell-based; conditions: 72 hrs
Protocol: The Cell Titer-Glo Luminscent Cell Viability Assay (Promega#G7572) generates a luminescent signal that is proportional to the number of metabolically active cells present in a reaction, based on the quantitation of ATP. Cell Titer-Glo Reagent was prepared by thawing a vial of Cell Titer-Glo Buffer in a 37° C. water bath. The entire bottle of buffer was then added to the bottle of lyophilized Cell Titer-Glo Substrate provided in the kit. Lyophilized substrate was allowed to dissolve; the solution was then mixed by inversion and was ready for use. Jeko-1 cells were diluted to a density of 200,000 cells/mL and cultured in T250 flask. Before treatment (time 0), 3×100 micro liter aliquots were removed and placed into a black 96 well plate with clear bottom (Costar#3904). 50 uL of CTG reagent was added to each well. The plate was placed on an Orbital Shaker, protected from light and incubated using setting 4 for 30 minutes at RT. The plate was then read using the Envision Luminometer, and results exported. The cells remaining in the T250 flasks were either left untreated or treated with single agents or in combinations. […] Results were exported and analyzed using Microsoft Excel. The percentage of viable cells as compared to control growth was calculated using following equation: […]
A is the CTG read under treatment condition
B is the CTG read for Time 0 cells
C is CTG read for 72 hr untreated cells […]

[3] = system: Jeko-1 xenograft; test: Jeko-1 mantle cell lymphoma xenograft model; assay type: in vivo; conditions: 35 day treatment period, single agents
Source text: A Jeko-1 xenograft model was used to measure anti-tumor activity in a 35 day treatment period of Compound A1, Compound B1, and the combination of Compounds A1 and B1. Significant anti-tumor activity was observed.

SMILES	anti-tumor activity ([1]; Compound A1 250 mg/kg qd)	% cell growth compared to the vehicle control ([2]; 100 nM CDK4/6 inhibitor alone)	anti-tumor activity [3]	anti-tumor activity ([1]; Compound B1 10 mg/kg qd)	% cell growth compared to the vehicle control ([2]; mTOR inhibitor alone at 1, 2.5 and 5 nM (all three concentrations))
CN(C)C(=O)c1cc2cnc(Nc3ccc(N4CCNCC4)cn3)nc2n1C1CCCC1 [Compound A1, 7-Cyclopentyl-2-(5-piperazin-1-yl-pyridin-2-ylamino)-7H-pyrrolo[2,3-d]pyrimidine-6-carboxylic acid dimethylamide]	neither Compound A1 nor Compound B1 had significant anti-tumor activity	70%	had anti-tumor activity	–	–
COC1CC2CC[C@@H](C)C(O)(O2)C(=O)C(=O)N2CCCCC2C(=O)O[C@H](C(C)C[C@@H]2CCC(OCCO)[C@H](OC)C2)CC(=O)C(C)/C=C(\C)C(O)C(OC)C(=O)[C@H](C)CC(C)/C=C/C=C/C=C/1C (stereo in doubt) [Compound B1, (1R,9S,12S,15R,16E,18R,19R,21R,23S,24E,26E,28E,30S,32S,35R)-1,18-dihydroxy-12-{(1R)-2-[(1S,3R,4R)-4-(2-hydroxyethoxy)-3-methoxycyclohexyl]-1-methylethyl}-19,30-dimethoxy-15,17,21,23,29,35-hexamethyl-11,36-dioxa-4-aza-tricyclo[30.3.1.04,9]hexatriaconta-16,24,26,28-tetraene-2,3,10,14,20-pentaone]	–	–	had anti-tumor activity	neither Compound A1 nor Compound B1 had significant anti-tumor activity	approximately 30%
